Measurements from paper PMC6770517, “Insight into the Antifungal Mechanism of Action of Human RNase N-terminus Derived Peptides” (International Journal of Molecular Sciences, 2019).
Converted amounts (≈) assume the structure as drawn. Where no end group is shown, it is not given here.

Tests used:
[1] = test system: C. albicans cytoplasmic membrane; assay: Cell membrane depolarization assay (DiSC3); format: cell-based, Candida albicans (ATCC 90028); details: mean ± SEM; for Membrane Depolarization ED50: DiSC3 probe, peptide 0.1 to 5 µM, 50 min, 20 °C, Hepes-KOH pH 7.2; for Membrane Depolarization Depolmax: maximum fluorescence value at final incubation time with 2 µM peptide, DiSC3
Protocol: Membrane depolarization was assayed by monitoring the DiSC3 fluorescence intensity change in response to changes in transmembrane potential as described previously. C. albicans cells were grown at 30 °C to the mid-exponential (OD592~0.4) and resuspended in 5 mM Hepes-KOH, 20 mM glucose and 100 mM KCl at pH 7.2. DiSC3 was added to a final concentration of 0.4 µM. Changes in the fluorescence for alteration of the cell plasma membrane potential were continuously monitored at 20 °C at an excitation wavelength of 620 nm and an emission wavelength of 670 nm. When the dye uptake was maximal, as indicated by a stable reduction in the fluorescence as a result of quenching of the accumulated dye in the membrane interior, protein in 5 mM Hepes-KOH buffer at pH 7.2 was added at a final peptide concentration from 1 to 5 μM and incubated for 50 min, to calculate the ED50 concentration. Maximum depolarization was calculated when the fluorescence signal was fully stabilized, and the depolarization percentage was calculated taking Triton X-100 at 10% as a maximum reference value. The time required to reach a stabilized maximum fluorescence reading was recorded for each condition, and the time required to achieve half of total membrane depolarization was estimated from the nonlinear regression curve. All conditions were assayed in duplicate.

[2] = in vitro; format: cell-based; details: human
Protocol: The peptide cytoxicity was evaluated using the human monocytic THP1 cell line. The assay was performed in 96-well cell culture flat-bottom plates (Costar; Appleton Woods) in triplicate. THP-1 cultures were induced to macrophages by adding 2 ng/mL of colony-stimulating factor (R&D Systems, Germany). Peptides were serially diluted from 50 to 0.1 µM and added to 5 × 10^5 cells/mL. After 48 h of incubation, the cells were washed twice with 1× PBS, and fresh RPMI-1640 complete medium was added. Plates were then treated with 30 μL of a freshly prepared 0.01% resazurin solution and incubated overnight at 37 °C. The following day the change in color was observed and the fluorescence intensity was measured (λex560 nm, λem590 nm). The 50% growth inhibitory concentration (GIC50) was determined based on the resazurin fluorescence signal.

[3] = test system: C. albicans cells; assay: Minimal agglutination activity (MAC); format: cell-based, Candida albicans (ATCC 90028); details: for MAC (minimal agglutination concentration): C. albicans in PBS, 1 h at 30 °C, peptides 0.01 to 20 μM, visual inspection, mean ± SEM, three replicates of two independent experiments
Protocol: C. albicans cells were grown at 30 °C to an OD592 of 1.0, diluted 10 times, centrifuged at 5000× g for 2 min, and resuspended in 1× PBS. An aliquot of 100 μL of the cellular suspension was treated with increasing peptide concentrations (from 0.01 to 20 μM) and incubated at 30 °C for 1 h. The aggregation behavior was observed by visual inspection, and the agglutinating activity is expressed as the minimum agglutinating concentration of the sample tested, as previously described. Images were taken using a 50× stereoscope microscope.

[4] = test system: C. albicans cytoplasmic membrane; assay: Cell membrane permeabilization (Sytox Green uptake); format: cell-based, Candida albicans (ATCC 90028); details: mean ± SEM; for Membrane Permeabilization Max. Perm.: Sytox Green fluorescence, PBS, 50 min; for Membrane Permeabilization Perm.: maximum at final incubation time (50 min), referred to positive control 10 % Triton X-100, Sytox Green
Protocol: Membrane permeabilization was evaluated by using the Sytox® Green uptake assay. Sytox® Green is a cationic cyanine dye which is unable to cross the membrane. When cells’ plasma membrane integrity is compromised, the dye enters into the cell, binding to DNA and triggering a large increase of the fluorescence signal. For Sytox® Green assays, C. albicans cells were grown to mid-exponential growth phase at 30 °C and then centrifuged, washed, and resuspended in PBS. Cell suspensions in PBS (~2 × 10^6 cells/mL) were incubated with 1 μM Sytox® Green for 15 min in the dark prior to the influx assay. At 2 to 4 min after initiating data collection, proteins at 1 and 5 μM final concentration were added to the cell suspension, and the increase in Sytox® Green fluorescence was measured (excitation wavelength at 485 nm and emission at 520 nm) for 50 min in a Cary Eclipse spectrofluorimeter. Fungal cell lysis with 10% Triton X-100 was taken as the maximum fluorescence reference value.

[5] = test system: C. albicans; assay: Cell survival assay (Live/Dead kit); format: cell-based, Candida albicans (ATCC 90028); details: survival percentage at final incubation time (120 min), mean ± SEM
Protocol: C. albicans viability assay was performed using the Live⁄Dead® microbial viability kit as previously described. Candida strain was grown at 30 °C to ~5 × 10^6 cells/mL, centrifuged at 5000× g for 5 min and resuspended in a 0.85% NaCl solution, in accordance with the manufacturer instructions. C. albicans cell culture was stained using a SYTO®9/propidium iodide 1:1 mixture. SYTO9/propidium iodide staining allowed us to monitor both the candidal viability in planktonic cell cultures and within the biofilm, as the SYTO9 dye is able to permeate the cell membrane and stain the nucleic acid of viable cells; whereas, when the cell membrane is damaged, propidium iodide can diffuse into the cell and displace SYTO9. The method allows the labelling of intact viable cells and membrane compromised cells, which are labelled in green and red respectively, referred to as live and dead cells. The viability kinetics were monitored using a Cary Eclipse Spectrofluorimeter (Varian Inc., Palo Alto, CA, USA). Cell viability profiles were registered after adding from 1 to 5 µM of final peptide concentration. To calculate the cell viability, the fluorescence in the range of 510–540 nm and 620–650 nm were integrated to obtain the SYTO®9 (live cell) and the propidium iodide (dead cell) signals respectively. Then, the percentage of live bacteria was represented as a function of time.

[6] = test system: C. albicans planktonic cells; format: cell-based, Candida albicans (ATCC 90028); details: 4 h
Protocol: Cell viability of C. albicans was assayed using the BacTiter-Glo™ Microbial Cell Viability kit (Promega), which measures the number of viable cells, by ATP quantification. ATP, as an indicator of metabolically active cells, is indirectly measured by a coupled luminescence detection assay. The luminescent signal is proportional to the amount of ATP required for the conversion of luciferin into oxyluciferin in the presence of luciferase. An overnight culture of C. albicans was used to inoculate fresh Sabouraud liquid culture, and logarithmic phase culture was grown to an OD592 of 0.2. RNase derived N-terminal peptides were added to 0.1 mL of cell culture at a final concentration from 0.025 to 20 μM. The C. albicans viability was followed after 4 h of incubation at 30 °C. 50 µL of incubation culture were mixed with 50 µL of BacTiter-Glo^TM reagent in a microtiter plate following the manufacturer instructions and incubated at room temperature for 10 min. Luminiscence was read on a Victor3 plate reader (PerkinElmer, Waltham, MA, USA) with a 1-s integration time. IC50 values were calculated by fitting the data to a dose-response curve.

[7] = test system: C. albicans; assay: Minimum fungicidal concentration by CFU counting; format: cell-based, Candida albicans (ATCC 90028); details: for MFC100, PBS / MFC100, Sabouraud Broth: C. albicans ~2 × 10^5 cells/mL, CFU counting, peptides 20 to 0.1 µM, mean ± SEM, two independent experiments in triplicate; for MFC100, PBS: 4 h at 30 °C in PBS; for MFC100, Sabouraud Broth: 4 h at 30 °C in Sabouraud nutrient broth
Protocol: C. albicans was cultured overnight in Sabouraud Dextrose broth at 30 °C, sub-cultured the next day in fresh media and grown to an optical density of 0.4 at 592 nm (mid log-phase). Cells were washed twice and diluted to ~2 × 10^5 cells/mL. Peptides serially diluted were added to the cells from 20 to 0.1 µM final concentration. C. albicans was incubated at 30 °C during 4h in Sabouraud nutrient broth or PBS. Following, the samples were plated onto Sabouraud Petri dishes and incubated at 30 °C overnight. Antifungal activity was expressed as the MFC, defined as the lowest peptide concentration required for more than 99% of microorganism killing. MFC of each peptide was determined from two independent experiments performed in triplicate for each concentration.

[8] = test system: C. albicans; details: as previously reported; cited from earlier work

KESRAKKFQRQHMDSDSSPSSSSTYSNQMMRRRNMTQGRSKPVNTFVH-NH2 [RN1]
Membrane Depolarization ED50 [1]: 4630 ± 700 nM
Membrane Depolarization Depolmax [1]: 65.2 ± 4.6 AU
IC50 at 48 h [2]: > 50000 nM
MAC (minimal agglutination concentration) [3]: 1.80 ± 0.40 µM
Membrane Permeabilization Max. Perm. [4]: 26.1 ± 0.4 AU
Membrane Permeabilization Perm. [4]: 8.3 ± 0.4%
Cell Survival [5]: 67 ± 1%
IC50 [6]: 2100 ± 200 nM
MFC100, PBS [7]: 3.75 ± 0.30 µM
MFC100, Sabouraud Broth [7]: 3.75 ± 0.50 µM

RPPQFTRAQWFAIQHISLNPPRSTIAMRAINNYRWRSKNQNTFLR-NH2 [RN3]
IC50 at 48 h [2]: > 50000 nM
IC50 [6]: 220 ± 50 nM

WPKRLTKAHWFEIQHIQPSPLQSNRAMSGINNYTQHSKHQNTFLH-NH2 [RN6]
IC50 at 48 h [2]: > 50000 nM
IC50 [6]: 1800 ± 200 nM

QDNSRYTHFLTQHYDAKPQGRDDRYSESIMRRRGLTSPSKDINTFIH-NH2 [RN5]
Membrane Depolarization ED50 [1]: 1510 ± 100 nM
Membrane Depolarization Depolmax [1]: 39.1 ± 5.1 AU
IC50 at 48 h [2]: > 50000 nM
MAC (minimal agglutination concentration) [3]: 1.80 ± 0.40 µM
Membrane Permeabilization Max. Perm. [4]: 66.5 ± 0.6 AU
Membrane Permeabilization Perm. [4]: 21.8 ± 0.4%
Cell Survival [5]: 39 ± 0.5%
IC50 [6]: > 20000 nM
MFC100, PBS [7]: >20 µM
MFC100, Sabouraud Broth [7]: >20 µM
MFC ([7]; medium not specified): inactive

RPRGMTSSQWFRIQHMQPSPQASNSAMRNINRHTRRSRDLNTFLH-NH2 [RN7R]
IC50 at 48 h [2]: > 50000 nM
IC50 [6]: 1620 ± 320 nM

C[C@@H]1[C@H](O)[C@@H](C)/C=C/C=C/C=C/C=C/C=C/C=C/C=C/[C@H](O[C@@H]2O[C@H](C)[C@@H](O)[C@H](N)[C@@H]2O)C[C@@H]2O[C@](O)(C[C@@H](O)C[C@@H](O)[C@H](O)CC[C@@H](O)C[C@@H](O)CC(=O)O[C@H]1C)C[C@H](O)[C@H]2C(=O)O [amphotericin B]
MFC taken as internal reference [8]: 0.5 µM (≈ 0.462 µg/mL)

QDGMYQRFLRQHVHPEETGGSDRYSNLMMQRRKMTLYHSKRFNTFIH-NH2 [RN4]
Membrane Depolarization ED50 [1]: 3580 ± 1600 nM
Membrane Depolarization Depolmax [1]: 76.2 ± 4.8 AU
IC50 at 48 h [2]: > 50000 nM
MAC (minimal agglutination concentration) [3]: 0.40 ± 0.10 µM
Membrane Permeabilization Max. Perm. [4]: 117 ± 2 AU
Membrane Permeabilization Perm. [4]: 38.7 ± 0.1%
Cell Survival [5]: 65 ± 10%
IC50 [6]: 1800 ± 300 nM
MFC100, PBS [7]: 3.75 ± 0.20 µM
MFC100, Sabouraud Broth [7]: 4.00 ± 0.50 µM

KPPQFTKAQWFAIQHISLNPPKSTIAMKAINNYKWKSKNQNTFLK-NH2 [RN3K]
IC50 at 48 h [2]: > 50000 nM
IC50 [6]: 2080 ± 270 nM

KPKGMTSSQWFKIQHMQPSPQASNSAMKNINKHTKRSKDLNTFLH-NH2 [RN7]
IC50 at 48 h [2]: > 50000 nM
IC50 [6]: 450 ± 100 nM

colistin
MFC taken as internal reference [8]: 0.25 µM

KPPQFTWAQWFETQHINMTSQQSTNAMQVINNYQRRSKNQNTFLL-NH2 [RN2]
IC50 at 48 h [2]: > 50000 nM
IC50 [6]: > 20000 nM

KPKDMTSSQWFKTQHVQPSPQASNSAMSIINKYTERSKDLNTFLH-NH2 [RN8]
IC50 at 48 h [2]: > 50000 nM
IC50 [6]: > 10000 nM

B1: hRNase7: human ribonuclease 7 of the RNaseA superfamily, parental protein of RN7 (protein, UniProt Q9H1E1 29-156, looked up)
Ribonuclease 7: KPKGMTSSQWFKIQHMQPSPQACNSAMKNINKHTKRCKDLNTFLHEPFSSVAATCQTPKIACKNGDKNCHQSHGAVSLTMCKLTSGKHPNCRYKEKRQNKSYVVACKPPQKKDSQQFHLVPVHLDRVL
agglutination of C. albicans by the parental hRNase ([3]; protein tested up to 20 μM): not
